{"source": "ChEMBL document CHEMBL6182898", "about": "“Design, synthesis and bioevaluation of novel hydrazide derivatives as enhancers of immunotherapy and DNA-damage response in antitumor therapy” (Eur J Med Chem, 2025)", "key": {"[1]": {"biological_target": "Programmed cell death 1 ligand 1 (Mus musculus, UniProt Q9EP73)", "sequence (Q9EP73 whole entry)": "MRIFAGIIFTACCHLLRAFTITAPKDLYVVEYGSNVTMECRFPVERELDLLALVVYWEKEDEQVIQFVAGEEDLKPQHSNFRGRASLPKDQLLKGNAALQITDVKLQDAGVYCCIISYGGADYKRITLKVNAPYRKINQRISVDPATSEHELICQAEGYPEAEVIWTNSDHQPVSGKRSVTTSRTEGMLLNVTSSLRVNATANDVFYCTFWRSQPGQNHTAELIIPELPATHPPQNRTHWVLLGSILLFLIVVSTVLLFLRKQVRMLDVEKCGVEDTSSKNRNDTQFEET", "experiment": "Induction of PD-L1 degradation in mouse B16-F10 cells incubated for 24 hrs by Western blot analysis", "format": "cell-based"}, "[2]": {"biological_target": "Programmed cell death 1 ligand 1 (Mus musculus) (UniProt Q9EP73)", "sequence (Q9EP73 whole entry)": "as above", "experiment": "Induction of PD-L1 degradation in mouse B16-F10 cells at 5 uM incubated for 24 hrs in presence of Bafilomycin A1 by Western blot analysis", "format": "cell-based"}, "[3]": {"biological_target": "Programmed cell death 1 ligand 1 (Mus musculus) (UniProt Q9EP73)", "experiment": "Induction of PD-L1 degradation in mouse B16-F10 cells at 5 uM incubated for 24 hrs in presence of MG-132 by Western blot analysis", "format": "cell-based"}, "[4]": {"biological_target": "Programmed cell death 1 ligand 1 (Mus musculus) (UniProt Q9EP73)", "experiment": "Induction of PD-L1 degradation in mouse B16-F10 cells at 2 uM incubated for 24 hrs in presence of CA-074 by Western blot analysis", "format": "cell-based"}, "[5]": {"biological_target": "Programmed cell death 1 ligand 1 (Mus musculus) (UniProt Q9EP73)", "experiment": "Induction of PD-L1 degradation in mouse B16-F10 cells assessed as increase in CTSB level at 0.313 to 10 uM incubated for 24 hrs by Western blot analysis", "format": "cell-based", "conditions": "dose 0.313-10 µM"}, "[6]": {"tested_on": "4T1", "experiment": "Induction of DNA damage in mouse 4T1 cells assessed as decrease in PARP1 level at 2 uM incubated for 24 hrs by Western blot analysis", "format": "functional, cell-based"}, "[7]": {"experiment": "AUC (0 to infinity) in male Sprague-Dawley rat at 2 mg/kg, iv measured for 0.083 to 12 hrs by LC-MS/MS analysis", "format": "ADME, organism-based", "conditions": "in vivo, time 0.083-12 hrs"}, "[8]": {"experiment": "VRT (0 to infinity) in male Sprague-Dawley rat at 2 mg/kg, iv measured for 0.083 to 12 hrs by LC-MS/MS analysis", "format": "ADME, organism-based", "conditions": "in vivo, time 0.083-12 hrs"}, "[9]": {"experiment": "Clast in male Sprague-Dawley rat at 2 mg/kg, iv measured for 0.083 to 12 hrs by LC-MS/MS analysis", "format": "ADME, organism-based", "conditions": "in vivo, time 0.083-12 hrs"}, "[10]": {"experiment": "Tmax in male Sprague-Dawley rat at 2 mg/kg, iv measured for 0.083 to 12 hrs by LC-MS/MS analysis", "format": "ADME, organism-based", "conditions": "in vivo, time 0.083-12 hrs"}, "[11]": {"experiment": "AUC (0 to t) in male Sprague-Dawley rat at 20 mg/kg, po measured for 0.083 to 12 hrs by LC-MS/MS analysis", "format": "ADME, organism-based", "conditions": "in vivo, time 0.083-12 hrs"}, "[12]": {"experiment": "AUMC (0 to infinity) in male Sprague-Dawley rat at 20 mg/kg, po measured for 0.083 to 12 hrs by LC-MS/MS analysis", "format": "ADME, organism-based", "conditions": "in vivo, time 0.083-12 hrs"}, "[13]": {"experiment": "Clast in male Sprague-Dawley rat at 20 mg/kg, po measured for 0.083 to 12 hrs by LC-MS/MS analysis", "format": "ADME, organism-based", "conditions": "in vivo, time 0.083-12 hrs"}, "[14]": {"experiment": "Half life in male Sprague-Dawley rat at 20 mg/kg, po measured for 0.083 to 12 hrs by LC-MS/MS analysis", "format": "ADME, organism-based", "conditions": "in vivo, time 0.083-12 hrs"}, "[15]": {"experiment": "Tmax in male Sprague-Dawley rat at 20 mg/kg, po measured for 0.083 to 12 hrs by LC-MS/MS analysis", "format": "ADME, organism-based", "conditions": "in vivo, time 0.083-12 hrs"}, "[16]": {"experiment": "Apparent volume of distribution in male Sprague-Dawley rat at 20 mg/kg, po measured for 0.083 to 12 hrs by LC-MS/MS analysis", "format": "ADME, organism-based", "conditions": "in vivo, time 0.083-12 hrs"}, "[17]": {"experiment": "Toxicity in male C57BL/6J mouse implanted with mouse B16-F10 cells assessed as body weight change at 50 mg/kg, IG treated for 14 days consecutively", "format": "organism-based", "conditions": "in vivo, po, 336 h, time 14 day"}, "[18]": {"experiment": "Toxicity in male C57BL/6J mouse implanted with mouse B16-F10 cells assessed as histopathological damage in kidney at 50 mg/kg, IG treated for 14 days consecutively by H and E staining based analysis", "format": "organism-based", "conditions": "in vivo, po, 336 h, time 14 day"}, "[19]": {"experiment": "Toxicity in male C57BL/6J mouse implanted with mouse B16-F10 cells assessed as histopathological damage in heart at 25 mg/kg, IG treated for 14 days consecutively in presence of NP-19 by H and E staining based analysis", "format": "organism-based", "conditions": "in vivo, po, 336 h, time 14 day"}, "[20]": {"experiment": "Toxicity in male C57BL/6J mouse implanted with mouse B16-F10 cells assessed as histopathological damage in kidney at 25 mg/kg, IG treated for 14 days consecutively in presence of NP-19 by H and E staining based analysis", "format": "organism-based", "conditions": "in vivo, po, 336 h, time 14 day"}, "[21]": {"tested_on": "B16-F10", "experiment": "Induction of antitumor immunity in mouse B16-F10 cells implanted in male C57BL/6J mouse assessed as increase in T cell infiltration at 50 mg/kg, IG treated for 14 days consecutively by immunofluorescence based analysis", "format": "functional, organism-based", "conditions": "time 14.0 day"}, "[22]": {"tested_on": "B16-F10", "experiment": "Induction of antitumor immunity in mouse B16-F10 cells implanted in male C57BL/6J mouse assessed as CD3+CD8+ T cell infiltration at 25 mg/kg, IG treated for 14 days consecutively in presence of NP-19 by flow cytometry (reference value: 10 %)", "format": "functional", "conditions": "time 14 day"}, "[23]": {"biological_target": "T1, Histone deacetylase 3 (Mus musculus) (UniProt O88895)", "T1 sequence (whole entry)": "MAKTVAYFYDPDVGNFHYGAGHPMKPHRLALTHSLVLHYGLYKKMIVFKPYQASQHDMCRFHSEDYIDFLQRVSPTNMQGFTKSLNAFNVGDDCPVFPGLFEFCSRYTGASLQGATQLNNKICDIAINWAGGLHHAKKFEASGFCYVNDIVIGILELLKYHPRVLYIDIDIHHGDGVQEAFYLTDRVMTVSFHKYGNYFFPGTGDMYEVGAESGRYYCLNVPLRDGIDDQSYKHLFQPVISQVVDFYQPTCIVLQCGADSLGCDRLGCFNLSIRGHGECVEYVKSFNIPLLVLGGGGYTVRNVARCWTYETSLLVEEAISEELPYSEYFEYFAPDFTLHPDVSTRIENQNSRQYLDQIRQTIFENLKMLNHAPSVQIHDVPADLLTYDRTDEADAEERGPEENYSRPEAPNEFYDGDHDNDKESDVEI", "experiment": "In vivo inhibition of HDAC3 in mouse B16-F10 cells implanted in male C57BL/6J mouse assessed as increase in Ac-H3 level at 50 mg/kg, IG treated for 14 days consecutively by Western blot analysis", "format": "functional, organism-based", "conditions": "time 14.0 day"}, "[24]": {"biological_target": "T1, Histone deacetylase 3 (Mus musculus)", "experiment": "In vivo inhibition of HDAC3 in mouse B16-F10 cells implanted in male C57BL/6J mouse assessed as decrease in PD-L1 level at 50 mg/kg, IG treated for 14 days consecutively by Western blot analysis", "format": "functional, organism-based", "conditions": "time 14.0 day"}, "[25]": {"tested_on": "4T1", "experiment": "Antitumor activity against mouse 4T1 cells implanted in mouse at 50 mg/kg/day relative to control", "format": "functional", "conditions": "read-out: TGI"}, "[26]": {"tested_on": "4T1", "experiment": "Induction of DNA damage in mouse 4T1 cells implanted in mouse assessed as decrease in PARP level at 50 mg/kg/day by Western blot analysis", "format": "functional, organism-based"}, "[27]": {"tested_on": "4T1", "experiment": "Induction of DNA damage in mouse 4T1 cells implanted in mouse assessed as increase in gamma-H2AX level at 50 mg/kg/day by Western blot analysis", "format": "functional, organism-based"}, "[28]": {"tested_on": "4T1", "experiment": "Induction of DNA damage in mouse 4T1 cells implanted in mouse assessed as decrease in PARP level at 50 mg/kg/day by immunofluorescence based analysis", "format": "functional, organism-based"}, "[29]": {"tested_on": "4T1", "experiment": "Synergistic induction of DNA damage in mouse 4T1 cells implanted in mouse assessed as increase in gamma-H2AX level at 25 mg/kg/day in presence of olaparib by immunofluorescence based analysis", "format": "functional, organism-based"}, "[30]": {"tested_on": "4T1", "experiment": "Synergistic induction of DNA damage in mouse 4T1 cells implanted in mouse assessed as increase in gamma-H2AX level at 25 mg/kg/day in presence of olaparib by IHC analysis", "format": "functional, organism-based"}}, "note": "Calls of active or inactive are those of the source. The calls are words filed in the database; no cut-off is given here."}
{"smiles": "CCCNNC(=O)CCCCCCNC(=O)c1cnc(-c2ccc(NC(=O)OC(C)(C)C)cc2)s1", "values": [{"measurement": "DC50", "setting": "[1]", "result": 4.17, "unit": "µM"}, {"measurement": "Activity", "setting": "[2]", "result": "inactive"}, {"measurement": "Activity", "setting": "[3]", "result": "Active"}, {"measurement": "Activity", "setting": "[4]", "result": "inactive"}, {"measurement": "Activity", "setting": "[5]", "result": "Active"}, {"measurement": "Activity", "setting": "[6]", "result": "Active"}, {"measurement": "AUC(0-inf)", "setting": "[7]", "result": 658, "unit": "ng·h/mL"}, {"measurement": "VRT", "setting": "[8]", "result": 0.98, "unit": "h²"}, {"measurement": "Clast", "setting": "[9]", "result": 0.24, "unit": "ng/mL"}, {"measurement": "Tmax", "setting": "[10]", "result": 4.8, "unit": "min"}, {"measurement": "AUC(0-t)", "setting": "[11]", "result": 30.8, "unit": "ng·h/mL"}, {"measurement": "AUMC", "setting": "[12]", "result": 97.74, "unit": "hr.hr.ug/L"}, {"measurement": "Clast", "setting": "[13]", "result": 0.27, "unit": "ng/mL"}, {"measurement": "half-life", "setting": "[14]", "result": 170, "unit": "min"}, {"measurement": "Tmax", "setting": "[15]", "result": 43.2, "unit": "min"}, {"measurement": "Vz", "setting": "[16]", "result": 2785.62, "unit": "L/kg"}, {"measurement": "Activity", "setting": "[17]", "result": "Non-toxic"}, {"measurement": "Activity", "setting": "[18]", "result": "Non-toxic"}, {"measurement": "Activity", "setting": "[19]", "result": "Non-toxic"}, {"measurement": "Activity", "setting": "[20]", "result": "Non-toxic"}, {"measurement": "Activity", "setting": "[21]", "result": "Active"}, {"measurement": "Activity", "setting": "[22]", "result": 38, "unit": "%"}, {"measurement": "inhibition", "setting": "[23]", "result": "Active"}, {"measurement": "inhibition", "setting": "[24]", "result": "Active"}, {"measurement": "inhibition in vivo at 50 mg/kg/day", "setting": "[25]", "result": 64, "unit": "%"}, {"measurement": "Activity", "setting": "[26]", "result": "Active"}, {"measurement": "Activity", "setting": "[27]", "result": "Active"}, {"measurement": "Activity", "setting": "[28]", "result": "Active"}, {"measurement": "Activity", "setting": "[29]", "result": "Active"}, {"measurement": "Activity", "setting": "[30]", "result": "Active"}]}
